Measured values from US7556928B2, “Method of screening a population of cells” (One Cell Systems, Inc., priority 2001, dated 2009).

How the values were obtained:
CRL-8018 hybridoma cells [1] = experiment: In-vitro induced IgG isotype switching by sequential sublining and mIgG ELISA; type: cell-based, mouse; conditions: retinoic acid 100 nM
Description: Induction of Class-Switching Using CRL-8018 cell line, we investigated and evaluated methods of increasing the number class-switching events in-vitro. Cells were plated in 75 cm^2 flasks or in 12-well plates at 1×10^4/ml and incubated for 7 days in complete growth medium supplemented with:
Determination of In-vitro Induced Switching Rate Using Sequential Sublining CRL-8018 cells were resuspended in growth medium supplemented with mitogen(s)/growth factors as described above and plated out in ten 96-well plates at a density of 1,000 cells/well. Cells were cultured at 37° C., 5% CO2 in a humid incubator for 5 days. Cell culture supernates were collected and an isotype-specific ELISA performed. Briefly, 96-well flexible assay plates, previously coated with 10μg/plate of purified goat anti-mouse IgG (Jackson Immunochemicals) in 20 mM NaHCO3 (Sigma-Aldrich), 50 μl/well, were incubated overnight at 4° C. and then washed 3 times in Dulbecco's phosphate buffered saline without calcium and magnesium/0.2% Tween 20 (DPBS-/Tween) (Sigma-Aldrich). Non-specific protein binding sites were blocked using PBS+1% BSA, 200 μl/well for 2 hr at room temperature (RT).
100 μl of each of the culture supemates were harvested and incubated in the anti-IgG coated plates for 2 hr at RT. The assay plates were washed three times in DPBS-/Tween, and 50 μl of HRP conjugated goat anti-mouse IgG (Jackson Immunochemicals) diluted 1:100 in PBS/Tween were applied to each well and incubated at RT for 1 hr. Plates were washed again and developed using 100 μl of TMB substrate solution (Sigma-Aldrich). The reaction was halted with 0.5M H2SO4 (Sigma-Aldrich) and plates were read at […] on an ELx800 ELISA plate reader (Bio-TEK Instruments, Inc.). Five rounds of the above procedure were performed to determine the switching rate.
11. Detection of In-vitro Induced IgG Isotype Switching Rate Among CRL-8018 Hybridoma Cells Using Sequennal Sublining Experiments were performed with CRL-8018 hybridoma cell line as described in Materials and Methods. […] Sequental sublining was performed as described in Materials and Methods. 1×10^6 cells were resuspended in 200 ml of growth medium supplemented with 100 nM of retinoic acid (5×10^3/ml) and plated out in ten 96-well plates at a density of 1,000 cells/well (0.2 ml/well). After 5 days of incubation at 37° C. and 5% CO2, mIgG isotype specific ELISA was performed with cell culture supemates. Cells from two positive wells were plated out in 96-well plates at a density of 100 cells/well (25 plates). Five rounds of the above procedure were performed: 1,000 cells/well, 100 cells/well, 10 cells/well, and 1 cell/well. […] About two months, 110 plates and 10,560 supemates for mIgG isotype specific ELISA were required for the assay.

CRL-8018 hybridoma cells [2] = experiment: Microdrop isotype capture and isolation assay (FACS); type: cell-based, mouse; conditions: 100 nM
Description: Determination of Spontaneous and In-vitro Stimulated Switching Rate Using the Microdrop Isotype Capture and Isolation Assay Due to the low rate of isotype switching, analysis of large cell populations is necessary. —We, therefore, used a modified microdrop encapsulation protocol to isolate spontaneous or in-vitro induced rare IgG isotype switch variants among IgM secreting hybridoma cells. If the IgG concentration in supernatants was <0.1 μg/ml, we initially encapsulated multiple cells, followed by single cell encapsulation. In all cases, if,after in-vitro induction, the concentration of secreted IgG in supernatants was >0.1 μg/ml, one round of single cell encapsulation was sufficient for discriminating and sorting a small sub-population of positive cells.
Two aliquots of 500 μl melted CelBioGel-3™ were vortexed with 25 μl of 10% Pluronic F-68 solution (Sigma-Aldrich), equilibrated at 37° C. for 3 min and then each was mixed with at least 2×10^6 hybridoma cells in […] of growth medium. These mixtures were added to 15 ml prewarmed CelMix™, covered and shaken vigorously 10 times to form an emulsion. Then the vial was attached to CellSys100™ Microdrop Maker (One Cell Systems, Inc) and the emulsion was mixed at 1800 rpm for 1 min at RT, then 1800 rpm for 1 min at 0° C., and subsequently 1000 rpm for 6 min at 0° C. Microdrops were washed three times in DPBS to remove oil and then incubated in 7 ml DPBS containing streptavidin (Sigma-Aldrich) at a final concentration of 10 μg/ml for 10 min at RT.
After incubating with streptavidin, microdrops were washed three times by resuspending in 15 ml DPBS- followed by centrifugation at 1500 rpm for 5 min and then incubated with 10 μg/ml of biotinylated goat anti-mouse IgG for 10 min. Microdrops were again washed three times in DPBS- (as above) and resuspended in 20 ml of prewarmed growth medium and incubated at 37° C. for 2 hr for antibody secretion by the encapsulated cells. After incubation, microdrops were pelleted by centrifugation at 1500 rpm for 5 min, resuspended in cold DPBS- and labelled with 10 μg/ml of FITC-conjugated goat anti-mouse IgG-specific antibody (Jackson Immunochemicals). microdrops were washed twice in HBSS, resuspended in 2 ml of growth medium and sorted using a Coulter EPICS Elite; gating was set to sort only highly positive microdrops, based on controls.
To determine spontaneous and in-vitro induced switching rate using the microdrop isotype capture and isolation assay, CRL-8018 hybridoma cells were plated out in two 75 cm^2 flasks or two 12-well plates (2 ml/well) at a density of 1×10^4 cells/ml in complete growth medium alone or in the presence of stimulators as described above. Cells were cultured at 37° C., 5% CO2 in a humid incubator for 5 days. Cell culture supemates were harvested and IgM and/or IgG production was tested using IsoStip™ or an ELISA-based mouse Isotyping kit (Zymed, Inc.). All cells from 75 cm2 flasks and from wells positive for IgG production were pooled, resuspended in 100-200 μl of growth medium and encapsulated in microdrops. The first round of isotype capture and isolation enrichment with multiple occupied microdrops was then performed, as described above. After sorted cells were propagated in culture for 5 days, the second round of the assay was performed usingmicrodrops occupied by single cells. After isolation by FACS, IgG secretors were plated out in 96-well plates, 1 cell/well. The number of recovered clones was estimated using supernatant ELISA after incubating plates at 37° C. in 5% C02 for 14 days.
Fluorescence Activated Cell Sorting Cell sorting was performed using an EPICS Elite™ Coulter Corp. with a 100 μm flow nozzle. FITC-labelled detection regents were excited by the 488 nm spectral line of an argon laser. Green (FITC) fluorescence was collected using a 525 nm, long pass band filter. For statistical analysis, EPICS Elite 4.02 software was used. […]

[3] = after first round with 25 × 10^6 cells
[4] = second round, highest-fluorescence sub-population

## CC1=C(/C=C/C(C)=C/C=C/C(C)=C/C(=O)O)C(C)(C)CCC1 [retinoic acid]
CRL-8018 hybridoma cells [1]
  rate of isotype switching: ~0.0006%
CRL-8018 hybridoma cells [1]; 1 cell/well, of 2400 wells
  % positive wells: 91.2%
CRL-8018 hybridoma cells [1]; 10 cells/well, of 2400 wells
  % positive wells: 23.5%
CRL-8018 hybridoma cells [1]; 100 cells/well, of 2400 wells
  % positive wells: 12.4%
CRL-8018 hybridoma cells [1]; 1,000 cells/well, of 960 wells
  % positive wells: 0.6%
CRL-8018 hybridoma cells [1]; plating density 1 cell/well
  mIgG positive wells: 2188
CRL-8018 hybridoma cells [1]; plating density 10 cells/well
  mIgG positive wells: 564
CRL-8018 hybridoma cells [1]; plating density 100 cells/well
  mIgG positive wells: 298
CRL-8018 hybridoma cells [1]; plating density 1,000 cells/well
  mIgG positive wells: 6
CRL-8018 hybridoma cells [2]; 2 × 10^6 cells, single cell encapsulation
  First round of FACS, FITC MFI: 320.65
CRL-8018 hybridoma cells [2]; 2 × 10^6 cells, single cell encapsulation, 1 cell per GMD
  First round of FACS, % positive events detected: 0.15%
CRL-8018 hybridoma cells [2]; 25 × 10^6 cells, multiple cell encapsulation
  First round of FACS, FITC MFI: 17.93
CRL-8018 hybridoma cells [2]; 25 × 10^6 cells, multiple cell encapsulation, 2.5 cells per GMD
  First round of FACS, % positive events detected: 0.09%
CRL-8018 hybridoma cells [2]; [3]
  Sequential second round of FACS of single occupied GMDs, % positive events detected: 36.4%
  Sequential second round of FACS of single occupied GMDs, FITC MFI: 11.3
CRL-8018 hybridoma cells [2]; [4]
  Sorted GMDs % pos: 2.9%
  Sorted GMDs MFI: 75.2
